In patent US20170166555A1, “FUNCTIONALISED AND SUBSTITUTED INDOLES AS ANTI-CANCER AGENTS” (Novogen Limited, priority 2013, published 2017) one finds IC50 data, which are given here for 16 compounds.

Experiment in all cases: Anti-proliferative assay, cell-titre luminescent reagent, 72 h (GVK-BIO)
Assay type in all cases: cell-based

For experiment [1], the system named is A549 non-small cell lung carcinoma cells. The settings on record: Homo sapiens, read-out: IC50/μM Lung (NSLC) A549. An outline of the steps: (§1)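 Luminescence, read 30 min after reagent addition, was normalized to untreated or vehicle-only wells. Dosing followed a 24 h attachment period at 37 °C in 5% CO2. Values are either IC50s from linear regression (4 concentrations, 30 to 0.03 μM) or EC50s from nonlinear variable-slope fits (6 concentrations, 30 to 0.1 μM).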

The test system of experiment [2] is DU145 prostate cancer cells. The conditions noted are these: Homo sapiens. An outline of the steps:
as §1

Experiment [3] relates to MDA-MB-231 triple negative breast cancer cells. The settings on record: Homo sapiens. An outline of the steps:
as §1

The test system of experiment [4] is SK-N-SH neuroblastoma cells. The conditions noted are these: Homo sapiens. An outline of the steps: as §1
For a further experiment, the system named is SK-Mel-28 melanoma cells. The conditions noted are these: Homo sapiens. An outline of the steps:
as §1

For experiment [5], the system named is CaCo2 colorectal cancer cells. The conditions noted are these: Homo sapiens. An outline of the steps: as §1
The subject of experiment [6] is PC3 prostate cancer cells. An outline of the steps:
as §1

[7] abbreviates: A549, 72 h, 30, 10, 3, 1, 0.3 and 0.1 μM, nonlinear regression (Table 5).
The mark [8] stands for this setting: DU-145, 72 h, 30, 10, 3, 1, 0.3 and 0.1 μM, nonlinear regression (Table 5).
Where [9] appears, read: MDA-MB-231, 72 h, 30, 10, 3, 1, 0.3 and 0.1 μM, nonlinear regression (Table 5).
[10] abbreviates: SK-N-SH, 30, 10, 3, 1, 0.3 and 0.1 μM, nonlinear regression (Table 5).
[11] abbreviates: SK-MEL-28, 72 h, 30, 10, 3, 1, 0.3 and 0.1 μM, nonlinear regression (Table 5).
[12] abbreviates: Caco-2, 72 h, 30, 10, 3, 1, 0.3 and 0.1 μM, nonlinear regression (Table 5).
The mark [13] stands for this setting: 30, 10, 3, 1, 0.3 and 0.1 μM, nonlinear regression (Table 5).
The mark [14] stands for this setting: A549, 72 h, 30, 3, 0.3 and 0.03 μM, linear regression (Tables 2-4).
Where [15] appears, read: DU-145, 72 h, 30, 3, 0.3 and 0.03 μM, linear regression (Tables 2-4).
The mark [16] stands for this setting: MDA-MB-231, 72 h, 30, 3, 0.3 and 0.03 μM, linear regression (Tables 2-4).
Where [17] appears, read: SK-N-SH, 30, 3, 0.3 and 0.03 μM, linear regression (Tables 2-4).
The mark [18] stands for this setting: SK-MEL-28, 72 h, 30, 3, 0.3 and 0.03 μM, linear regression (Tables 2-4).
[19] abbreviates: Caco-2, 72 h, 30, 3, 0.3 and 0.03 μM, linear regression (Tables 2-4).
[20] abbreviates: 30, 3, 0.3 and 0.03 μM, linear regression (Tables 2-4).

Read-outs that look alike come from different tables or passages of the source.

Take `Cc1c(C)n(CCCN2CCN(C)CC2)c2ccc(CN3CCN(CCc4ccc(O)cc4)CC3)cc12` [Compound 4112, 4-(2-(4-((2,3-dimethyl-1-(3-(4-methylpiperazin-1-yl)propyl)-1H-indol-5-yl)methyl)piperazin-1-yl)ethyl)phenol]: the IC50 in experiment [1] (setting [7]) stood at 5.9 µM; in experiment [2] (setting [8]) it was 8.3 µM; in experiment [3] (setting [9]), 11.8 µM; in experiment [4] (setting [10]), 7 µM; in the experiment on SK-Mel-28 melanoma cells (setting [11]), 13 µM; in experiment [5] (setting [12]) it was 17.5 µM. For the same compound, in experiment [6] (setting [13]), the IC50 turned out to be 8.4 µM.
In the case of `Cc1c(C)n(CCCN(C)C)c2ccc(CN3CCN(CCc4ccc(F)cc4)CC3)cc12` [Compound 4109, 3-(5-((4-(4-fluorophenethyl)piperazin-1-yl)methyl)-2,3-dimethyl-1H-indol-1-yl)-N,N-dimethylpropan-1-amine], the IC50 was 6.5 µM in experiment [1] (setting [7]); 5.3 µM in experiment [2] (setting [8]); 3.6 µM in experiment [3] (setting [9]); 3.7 µM in experiment [4] (setting [10]); 1 µM in the experiment on SK-Mel-28 melanoma cells (setting [11]); 9.1 µM in experiment [5] (setting [12]). In experiment [6] (setting [13]), the IC50 worked out at 9.5 µM.
Turning to `COc1ccc(NC(=O)c2cccc(Oc3ccc4c(c3)c(C)c(C)n4CCCN(C)C)c2)cc1` [Compound 4062], the IC50 worked out at 2.3 µM in experiment [1] (setting [14]); 4.4 µM in experiment [2] (setting [15]); 3.7 µM in experiment [3] (setting [16]); 4.8 µM in experiment [4] (setting [17]); 4.3 µM in the experiment on SK-Mel-28 melanoma cells (setting [18]); 6 µM in experiment [5] (setting [19]). The same compound returned an IC50 in experiment [6] (setting [20]) of 9 µM.
With `Cc1c(C)n(CCCN(C)C)c2ccc(Oc3cccc(C(=O)Nc4ccccc4)c3)cc12` [Compound 4066, 3-((1-(3-(dimethylamino)propyl)-2,3-dimethyl-1H-indol-5-yl)oxy)-N-phenylbenzamide], the IC50 in experiment [1] (setting [7]) is 8.5 µM; in experiment [2] (setting [8]), 6.9 µM; in experiment [3] (setting [9]), 11.4 µM; in experiment [4] (setting [10]), 5.4 µM; in the experiment with SK-Mel-28 melanoma cells (setting [11]), 4.9 µM; in experiment [5] (setting [12]) it was 14.8 µM. This compound also gave an IC50 in experiment [6] (setting [13]) of 10 µM.
With `COc1cccc(NC(=O)c2cccc(Nc3ccc4c(ccn4CCCN(C)C)c3)c2)c1` [Compound 4071], the IC50 in experiment [1] (setting [14]) is 4 µM; in experiment [2] (setting [15]) it was 4.7 µM; in experiment [3] (setting [16]), 3.4 µM; in experiment [4] (setting [17]) it was 3.7 µM; in the experiment on SK-Mel-28 melanoma cells (setting [18]), 4.9 µM; in experiment [5] (setting [19]), 12 µM. For the same compound, the IC50 in experiment [6] (setting [20]) was determined as 7.6 µM.
On to `Cc1c(C)n(CCCN(C)C)c2ccc(Cc3ccc(C(=O)Nc4ccc5c(c4)OCO5)cc3)cc12` [Compound 4084, N-(benzo[d][1,3]dioxol-5-yl)-4-((1-(3-(dimethylamino)propyl)-2,3-dimethyl-1H-indol-5-yl)methyl)benzamide], for which the IC50 in experiment [1] (setting [7]) turned out to be 6 µM; in experiment [2] (setting [8]), 4.8 µM; in experiment [3] (setting [9]), 6.5 µM; in experiment [4] (setting [10]), 10.6 µM; in the experiment on SK-Mel-28 melanoma cells (setting [11]), 5.5 µM; in experiment [5] (setting [12]) it was 7.1 µM. Also, the IC50 in experiment [6] (setting [13]) stood at 3.5 µM.
For `Cc1c(C)n(CCCN2CCN(C)CC2)c2ccc(CN3CCN(CCc4ccccc4)CC3)cc12` [Compound 4117, 2,3-dimethyl-1-(3-(4-methylpiperazin-1-yl)propyl)-5-((4-phenethylpiperazin-1-yl)methyl)-1H-indole], the IC50 in experiment [1] (setting [7]) came to 8.6 µM; in experiment [2] (setting [8]), 5.6 µM; in experiment [3] (setting [9]), 3.5 µM; in experiment [4] (setting [10]), 4.6 µM; in the experiment with SK-Mel-28 melanoma cells (setting [11]), 2 µM; in experiment [5] (setting [12]), 8.2 µM. In experiment [6] (setting [13]), this compound yielded an IC50 of 10.2 µM.
With `Cc1c(C)n(CCCN(C)C)c2ccc(Nc3ccc(C(=O)Nc4cccc(F)c4)cc3)cc12` [Compound 4107, 4-((1-(3-(dimethylamino)propyl)-2,3-dimethyl-1H-indol-5-yl)amino)-N-(3-fluorophenyl)benzamide], the IC50 in experiment [1] (setting [14]) is 2.9 µM; in experiment [2] (setting [15]) it was 3.5 µM; in experiment [3] (setting [16]) it was 2.8 µM; in experiment [4] (setting [17]) it was 3.6 µM; with SK-Mel-28 melanoma cells (setting [18]), 2.8 µM; in experiment [5] (setting [19]) it was 3.6 µM. The compound further had an IC50 in experiment [6] (setting [20]) of 3.5 µM.
As to `CN(C)CCCn1ccc2cc(Cc3ccc(C(=O)Nc4ccc5c(c4)OCO5)cc3)ccc21` [Compound 4079, N-(benzo[d][1, 3]dioxol-5-yl)-4-((1-(3-(dimethylamino)propyl)-1H-indol-5-yl)methyl)benzamide], the IC50 in experiment [1] (setting [14]) was 3.1 µM; in experiment [2] (setting [15]), 3.1 µM; in experiment [3] (setting [16]), 4.3 µM; in experiment [4] (setting [17]) it was 2.9 µM; in the experiment with SK-Mel-28 melanoma cells (setting [18]) it was 2.8 µM; in experiment [5] (setting [19]), over 30 µM. In experiment [6] (setting [20]), the IC50 is 1.8 µM.
`CN(C)CCCn1ccc2cc(Cc3cccc(C(=O)Nc4ccc5c(c4)OCO5)c3)ccc21` [Compound 4047, N-(benzo[d][1,3]dioxol-5-yl)-3-((1-(3-(dimethylamino)propyl)-1H-indol-5-yl)methyl)benzamide]: the IC50 in experiment [1] (setting [14]) amounted to 3 µM; in experiment [2] (setting [15]), 3.4 µM; in experiment [3] (setting [16]), 3 µM; in experiment [4] (setting [17]) it was 3.1 µM; in the experiment on SK-Mel-28 melanoma cells (setting [18]), 2.5 µM; in experiment [5] (setting [19]) it was 3 µM. In experiment [6] (setting [20]), the IC50 came to 3.1 µM.
Regarding `CN(C)CCCn1ccc2cc(Nc3ccc(C(=O)Nc4ccc5c(c4)OCO5)cc3)ccc21` [Compound 4101, N-(benzo[d][1,3]dioxol-5-yl)-4-((1-(3-(dimethylamino)propyl)-1H-indol-5-yl)amino)benzamide], the IC50 in experiment [1] (setting [14]) is 4 µM; in experiment [2] (setting [15]), 5.2 µM; in experiment [3] (setting [16]), 3.9 µM; in experiment [4] (setting [17]), 3.4 µM; in the experiment with SK-Mel-28 melanoma cells (setting [18]), 3.3 µM; in experiment [5] (setting [19]), over 30 µM. The IC50 in experiment [6] (setting [20]) came to 7.8 µM.
For `COc1ccc(NC(=O)c2ccc(Cc3ccc4c(c3)c(C)c(C)n4CCCN(C)C)cc2)cc1` [Compound 4083, 4-((1-(3-(dimethylamino)propyl)-2,3-dimethyl-1H-indol-5-yl)methyl)-N-(4-methoxyphenyl)benzamide], the IC50 amounted to 11.2 µM in experiment [1] (setting [7]); 5.1 µM in experiment [2] (setting [8]); 13.1 µM in experiment [3] (setting [9]); 3.3 µM in experiment [4] (setting [10]); 4.7 µM in the experiment with SK-Mel-28 melanoma cells (setting [11]); 11.9 µM in experiment [5] (setting [12]). The IC50 in experiment [6] (setting [13]) worked out at 13.2 µM.
Take `Cc1c(C)n(CCCN(C)C)c2ccc(Cc3cccc(C(=O)Nc4ccc5c(c4)OCO5)c3)cc12` [Compound 4052, N-(benzo[d][1,3]dioxol-5-yl)-3-((1-(3-(dimethylamino)propyl)-2,3-dimethyl-1H-indol-5-yl)methyl)benzamide]: the IC50 is 8 µM in experiment [1] (setting [14]); 13.8 µM in experiment [2] (setting [15]); 30 µM in experiment [3] (setting [16]); 31.9 µM in experiment [4] (setting [17]); 6.2 µM in the experiment with SK-Mel-28 melanoma cells (setting [18]); 27.1 µM in experiment [5] (setting [19]). The compound further returned an IC50 in experiment [6] (setting [20]) of 11.1 µM.
On to `COc1ccc(CCN2CCN(Cc3ccc4c(c3)c(C)c(C)n4CCCN3CCN(C)CC3)CC2)cc1` [Compound 4111, 5-((4-(4-methoxyphenethyl)piperazin-1-yl)methyl)-2,3-dimethyl-1-(3-(4-methylpiperazin-1-yl)propyl)-1H-indole], for which the IC50 in experiment [1] (setting [7]) is 5.5 µM; in experiment [2] (setting [8]) it was 11.3 µM; in experiment [3] (setting [9]), 3.9 µM; in experiment [4] (setting [10]) it was 3.4 µM; in the experiment on SK-Mel-28 melanoma cells (setting [11]) it was 2.4 µM; in experiment [5] (setting [12]), 7.9 µM. In addition, in experiment [6] (setting [13]), the IC50 amounted to 7.5 µM.
Take `COc1cccc(NC(=O)c2ccc(Cc3ccc4c(c3)c(C)c(C)n4CCCN(C)C)cc2)c1` [Compound 4086, 4-((1-(3-(dimethylamino)propyl)-2,3-dimethyl-1H-indol-5-yl)methyl)-N-(3-methoxyphenyl)benzamide]: the IC50 in experiment [1] (setting [7]) was 5 µM; in experiment [2] (setting [8]), 4.3 µM; in experiment [3] (setting [9]) it was 6.2 µM; in experiment [4] (setting [10]), 5.7 µM; in the experiment on SK-Mel-28 melanoma cells (setting [11]) it was 5.2 µM; in experiment [5] (setting [12]), 7.6 µM. Moreover, the IC50 in experiment [6] (setting [13]) is 4.8 µM.
Turning to `Cc1c(C)n(CCCN(C)C)c2ccc(Oc3ccc(C(=O)Nc4ccc5c(c4)OCO5)cc3)cc12` [Compound 4095, N-(benzo[d][1,3]dioxol-5-yl)-4-((1-(3-(dimethylamino)propyl)-2,3-dimethyl-1H-indol-5-yl)oxy)benzamide], the IC50 in experiment [1] (setting [14]) is 1 µM; in experiment [2] (setting [15]), 1.2 µM; in experiment [3] (setting [16]), 1.6 µM; in experiment [4] (setting [17]), 1.5 µM; in the experiment on SK-Mel-28 melanoma cells (setting [18]) it was 2.3 µM; in experiment [5] (setting [19]), 2.3 µM. For the same compound, the IC50 in experiment [6] (setting [20]) is 1.4 µM.
